Measured values reported in patent US11866405B2, “Substituted indazoles as IRAK4 inhibitors” (AstraZeneca AB, priority 2020, dated 2024).
Read-outs that look alike come from different tables or passages of the source.

Columns and labels:
[1] = tested on: IL-1β stimulated IL-8 release in hTHP1 cells; assay: IL-1β-induced IL-8 release in human THP-1 monocyte cell line; assay type: cell-based; conditions: THP-1 cells, IL-1β 1.8 ng/mL
Description: Effect of IRAK4 Inhibitors on IL-1β-Induced Cytokine Release in Human THP-1 Monocyte Cell Line
THP-1 cells were cultured in RPMI 1640 (Gibco 72400-021) containing 10% FBS (Gibco 10270-106), 1 mM Na-pyruvate (Gibco 11360-070) and 100 U/mL Penicillin-Streptomycin (Gibco 15140-122). Cells were plated at 5×10^4 cells per well in 384 well Echo certified plates (Labcyte PPT-0200) to which compounds had been added at various concentrations (10 point half log dose response with a final top concentration of 10 μM) using an Echo 655 (Labcyte Inc). The plate was incubated for 1 h at 37° C., then recombinant […] (R&D Systems 201-LB-025/CF) was added to a final concentration of 1.8 ng/mL. The plates were incubated at 37° C. for 18h. The plates were centrifuged at 250×g for four minutes, then 1.6 μL of the cell supernatant was transferred to a white low volume 384 well plate (Greiner #784075) using acoustic dispensing on an Echo 655. Next, 200 nL of acceptor bead (5 mg/mL) and biotinylated anti-IL-8 antibody (500 nM) was added using acoustic dispensing (beads and antibody were from a PerkinElmer 18 Alpha LISA detection kit, AL224C). The plate was sealed, briefly centrifuged, then incubated at room temperature for 1 h. Afterwards, 200 nL of donor bead solution (5 mg/mL) was added, the plate sealed and briefly centrifuged, then incubated for 1 h before being read on an Envision plate reader to allow determination the concentration of IRAK4 inhibitor required to effect a 50% reduction in the amount of IL-8 released following IL-1β stimulation in THP1 cells (Table 2). The quantified data were analysed in Genedata Screener 15 (Genedata AG). Data presented are the geometric mean of at least n=2, or as denoted by an * are obtained from a single experiment.

[2] = molecular target: IRAK4 auto-phosphorylation (Homo sapiens (Human), UniProt Q9NWZ3); assay: IRAK4 phosphorylation cell assay in IL-1β-stimulated Karpas-299 cells; assay type: cell-based; conditions: IL-1β 22.7 ng/mL, pIRAK4 (Thr345/Ser346), geometric mean of at least 2 experiments
In short: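 Karpas-299 cells were preincubated 1 h at 37 °C with compound (10-point half-log series, top 30 μM), then stimulated 10 min with 22.7 ng/mL IL-1β. Cells were fixed and stained for pIRAK4 (Thr345/Ser346), and per-cell fluorescence was quantified by high-content imaging. IC50 values are geometric means of at least 2 experiments.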

[3] = molecular target: human recombinant IRAK4 protein (Homo sapiens (Human), UniProt Q9NWZ3); assay: IRAK4 enzyme assay (mass spectrometry readout); assay type: biochemical; conditions: 3 mM ATP, 0.2 nM enzyme; geometric mean of at least n=2, * single experiment
In short: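 0.2 nM IRAK4 preincubated 15 min at room temperature with compound (10-point half-log series, top 1 μM or 10 μM) in pH 7.4 Tris buffer with 3 mM ATP; 10 μM peptide substrate added, 2 h at room temperature, formic acid stop. Phospho/unphospho peptide ratio by LC-MS/MS; potency from curve fit, geometric mean of n≥2 or single run.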

[4] = Homo sapiens, THP-1, 18 h, geometric mean of at least n=2, * n = 1, read-out: hTHP1, IL1β stim, IL8 release red. IC50
[5] = 18 h, geometric mean of at least n=2, * n = 1, read-out: hTHP1, IL1β stim, IL8 release red. IC50

Sequence of human recombinant IRAK4 protein (Q9NWZ3 whole entry): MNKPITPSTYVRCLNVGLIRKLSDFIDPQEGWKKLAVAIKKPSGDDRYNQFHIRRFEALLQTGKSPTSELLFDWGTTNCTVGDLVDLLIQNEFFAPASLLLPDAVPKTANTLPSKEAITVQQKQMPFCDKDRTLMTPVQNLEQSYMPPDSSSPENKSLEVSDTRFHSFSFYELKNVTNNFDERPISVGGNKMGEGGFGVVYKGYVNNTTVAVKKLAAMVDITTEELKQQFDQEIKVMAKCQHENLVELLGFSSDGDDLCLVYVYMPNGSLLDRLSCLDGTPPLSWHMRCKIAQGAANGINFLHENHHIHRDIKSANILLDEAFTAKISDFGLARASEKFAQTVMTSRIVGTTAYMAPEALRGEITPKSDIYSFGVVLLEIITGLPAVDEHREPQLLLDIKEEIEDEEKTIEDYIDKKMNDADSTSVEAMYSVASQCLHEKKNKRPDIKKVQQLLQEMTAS
Sequence of IRAK4 auto-phosphorylation (Q9NWZ3 whole entry): as above

`COc1cc2nn([C@H]3CC[C@H](O)C[C@@H]3C)cc2cc1C(=O)Nc1cnn2cccnc12` (single isomer, unassigned) [Example 38] showed an IC50 [1, 4] of 31 nM, an IC50 [2] of 186 nM and an IC50 [3] of 4.6 nM.

`C[C@H]1C[C@@H](O)CC[C@@H]1n1cc2cc(C(=O)Nc3cnn4cccnc34)c(OC3CC3)cc2n1` (single isomer, unassigned) [Example 45] showed an IC50 [1, 4] of 46 nM, an IC50 [2] of 70 nM and an IC50 [3] of 1.2 nM.

`COc1cc2nn([C@@H]3CCC4(C[C@@H]3C)CN(C(C)=O)C4)cc2cc1C(=O)Nc1cnc2cccnn12` (single isomer, unassigned) [Example 64] was tested, and the IC50 [1, 5] was 18 nM, the IC50 [2] was 38 nM and the IC50 [3] was less than 0.5 nM.

With `COc1cc2nn([C@@H]3CCC4(C[C@@H]3C)CN(C(C)=O)C4)cc2cc1C(=O)Nc1cnc2cccnn12` (single isomer, unassigned) [Example 65] the IC50 [1, 5] was 52 nM, the IC50 [2] was 44 nM and the IC50 [3] was 1.1 nM.

Work on `COc1cc2nn([C@@H]3CCC4(C[C@H]3C)CN(C(C)=O)C4)cc2cc1C(=O)Nc1cnc2cccnn12` (single isomer, unassigned) [Example 66] yielded an IC50 [1, 5] of 18 nM, an IC50 [2] of 23 nM and an IC50 [3] of less than 0.5 nM.

`COc1cc2nn([C@@H]3CCC4(C[C@H]3C)CN(C(C)=O)C4)cc2cc1C(=O)Nc1cnc2cccnn12` (single isomer, unassigned) [Example 67] showed an IC50 [1, 5] of 91 nM, an IC50 [2] of 144 nM and an IC50 [3] of 4.3 nM.

`COc1cc2nn([C@H]3CC[C@H](O)[C@@H](C)C3)cc2cc1C(=O)Nc1cnc2cccnn12` (single isomer, unassigned) [Example 80] showed an IC50 [1, 4] of 70 nM, an IC50 [2] of 28 nM and an IC50 [3] of 1.5 nM.

With `COc1cc2nn([C@H]3CC[C@@H](O)CC3)cc2cc1C(=O)Nc1cnc2cccnn12` [Example 7, 2-((1s,4s)-4-Hydroxycyclohexyl)-N-(imidazo[1,2-b]pyridazin-3-yl)-6-methoxy-2H-indazole-5-carboxamide] the IC50 [1, 5] was 48 nM, the IC50 [2] was 111 nM and the IC50 [3] was 6 nM.

`COc1cc2nn([C@H]3CC[C@H](O)CC3)cc2cc1C(=O)Nc1cnc2cccnn12` [Example 8, 2-((1r,4r)-4-Hydroxycyclohexyl)-N-(imidazo[1,2-b]pyridazin-3-yl)-6-methoxy-2H-indazole-5-carboxamide] gave an IC50 [1, 5] of 50 nM, an IC50 [2] of 58 nM and an IC50 [3] of 2.8 nM.

In the case of `O=C(Nc1cnn2cccnc12)c1cc2cn([C@@H]3CCC[C@H](O)C3)nc2cc1OC1CC1` [Example 17, 6-cyclopropoxy-2-((1R,3S)-3-hydroxycyclohexyl)-N-(pyrazolo[1,5-a]pyrimidin-3-yl)-2H-indazole-5-carboxamide], the IC50 [1, 4] is reported as 24 nM, the IC50 [2] is reported as 50 nM and the IC50 [3] is reported as 1 nM.

Compound `O=C(Nc1cnn2cccnc12)c1cc2cn([C@H]3CCC[C@@H](O)C3)nc2cc1OC1CC1` [Example 18] has an IC50 [1, 5] of 21 nM, an IC50 [2] of 19 nM and an IC50 [3] of less than 0.6 nM.

In the case of `COc1cc2nn(C3CCC4(CC3)CN(C(C)=O)C4)cc2cc1C(=O)Nc1cnc2cccnn12` [Example 21, 2-(2-Acetyl-2-azaspiro[3.5]nonan-7-yl)-N-(imidazo[1,2-b]pyridazin-3-yl)-6-methoxy-2H-indazole-5-carboxamide], the IC50 [1, 4] is reported as 17 nM, the IC50 [2] is reported as 36 nM and the IC50 [3] is reported as 0.7 nM.

With `COc1cc2nn([C@H]3CC[C@H](N(C)C(C)=O)CC3)cc2cc1C(=O)Nc1cnc2cccnn12` [Example 23, N-(Imidazo[1,2-b]pyridazin-3-yl)-6-methoxy-2-((1r,4r)-4-(N-methylacetamido)cyclohexyl)-2H-indazole-5-carboxamide] the IC50 [1, 4] was 7 nM, the IC50 [2] was 5 nM and the IC50 [3] was 0.2 nM.

For `COc1cc2nn([C@H]3CC[C@H](N(C)C(C)=O)CC3)cc2cc1C(=O)Nc1cnn2cnccc12` [Example 25, 6-Methoxy-2-((1r,4r)-4-(N-methylacetamido)cyclohexyl)-N-(pyrazolo[1,5-c]pyrimidin-3-yl)-2H-indazole-5-carboxamide], the IC50 [1, 5] was 23 nM, the IC50 [2] was 19 nM and the IC50 [3] was 1.4 nM.

`O=C(Nc1cnn2cccnc12)c1cc2cn([C@H]3CC[C@H](O)CC3)nc2cc1OC1CC1` [Example 57, 6-Cyclopropoxy-2-((1r,4r)-4-hydroxycyclohexyl)-N-(pyrazolo[1,5-a]pyrimidin-3-yl)-2H-indazole-5-carboxamide] gave an IC50 [1, 4] of 35 nM, an IC50 [2] of 60 nM and an IC50 [3] of 0.8 nM.

Compound `COc1cc2nn([C@H]3CC[C@@]4(CC3)CC(=O)N(C)C4)cc2cc1C(=O)Nc1cnc2cccnn12` [Example 68, N-(Imidazo[1,2-b]pyridazin-3-yl)-6-methoxy-2-((5s,8s)-2-methyl-3-oxo-2-azaspiro[4.5]decan-8-yl)-2H-indazole-5-carboxamide] has an IC50 [1, 4] of 84 nM, an IC50 [2] of 53 nM and an IC50 [3] of 1.6 nM.

`COc1cc2nn([C@H]3CC[C@]4(CC3)CC(=O)N(C)C4)cc2cc1C(=O)Nc1cnc2cccnn12` [Example 69, N-(Imidazo[1,2-b]pyridazin-3-yl)-6-methoxy-2-((5r,8r)-2-methyl-3-oxo-2-azaspiro[4.5]decan-8-yl)-2H-indazole-5-carboxamide] was tested, and the IC50 [1, 4] was 15 nM, the IC50 [2] was 22 nM and the IC50 [3] was 0.5 nM.

For `COc1cc2nn([C@H]3CC[C@]4(CC3)CC(=O)N(C)C4)cc2cc1C(=O)Nc1cnn2cccnc12` [Example 86, 6-methoxy-2-((5r,8r)-2-methyl-3-oxo-2-azaspiro[4.5]decan-8-yl)-N-(pyrazolo[1,5-a]pyrimidin-3-yl)-2H-indazole-5-carboxamide], the IC50 [1, 4] was 31 nM, the IC50 [2] was 36 nM and the IC50 [3] was 1.9 nM.

In the case of `COc1cc2nn([C@H]3CC[C@H](O)C[C@@H]3C)cc2cc1C(=O)Nc1cnc2cccnn12` [Example 91, 2-((1S,2S,4S)-4-hydroxy-2-methylcyclohexyl)-N-(imidazo[1,2-b]pyridazin-3-yl)-6-methoxy-2H-indazole-5-carboxamide], the IC50 [1, 4] is reported as 49 nM, the IC50 [2] is reported as 88 nM and the IC50 [3] is reported as 2.3 nM.

Compound `COc1cc2nn([C@@H]3CC[C@](C)(O)C[C@H]3C)cc2cc1C(=O)Nc1cnc2cccnn12` [Example 92, 2-((1R,2R,4S)-4-hydroxy-2,4-dimethylcyclohexyl)-N-(imidazo[1,2-b]pyridazin-3-yl)-6-methoxy-2H-indazole-5-carboxamide] has an IC50 [1, 4] of 28 nM, an IC50 [2] of 30 nM and an IC50 [3] of 1.6 nM.

In the case of `COc1cc2nn([C@@H]3CC[C@@](C)(O)C[C@H]3C)cc2cc1C(=O)Nc1cnc2cccnn12` [Example 93, 2-((1R,2R,4R)-4-hydroxy-2,4-dimethylcyclohexyl)-N-(imidazo[1,2-b]pyridazin-3-yl)-6-methoxy-2H-indazole-5-carboxamide], the IC50 [1, 4] is reported as 30 nM, the IC50 [2] is reported as 8 nM and the IC50 [3] is reported as 0.4 nM.
